Measured values: PubChem BioAssay AID1845196 (Molecular Pharmacology Branch, DTP, NCI, 2023)

System: 292921-168-R tumor spheroid viability
Test: Anticancer human tumor 292921-168-R patient-derived pancreatic carcinoma cell line growth inhibition
Conditions: spheroids with HUVEC and MSC; for IC50: curve of first compound; for viability, T/C: stronger effect = lower value
Text: Multicellular complex tumor spheroid response to DNA repair inhibitors in combination with DNA-damaging drugs
This study explores the anticancer activities of DNA-damaging drugs and inhibitors of DNA damage repair, both as single agents and in combinations. Complex tumor spheroids comprised of malignant cells, endothelial cells and mesenchymal stem cells served as an in vitro model for human solid tumors. This model system incorporates physiologically relevant features and patient-derived or established malignant cell lines with clinically relevant genetic alterations from many tumor types. Twenty-six patient-derived or established malignant cell lines were evaluated representing sarcoma, melanoma, small cell lung cancer (SCLC), non-small cell lung cancer (NSCLC), as well as bladder, ovarian and pancreatic cancers. The concentration ranges selected for each drug and investigational agent were based upon clinically achievable concentrations if the clinical Cmax of the agent was known.
Compounds. The drugs and compounds olaparib (NSC753686), talazoparib (NSC767125), berzosertib (NSC777718), elimusertib (NSC800525), nedisertib (NSC802822), VX-984 (NSC792969), AZD-1390 (NSC803789), temozolomide (NSC362856), topotecan (NSC609699), trabectedin (NSC813783), staurosporine (NSC755774), and gemcitabine (NSC613327) were obtained from the National Cancer Institute (NCI) Developmental Therapeutics Program Chemical Repository. The FDA-approved anticancer drug set is available from the Developmental Therapeutics Program at https://dtp.cancer.gov/organization/dscb/obtaining/available_plates.htm. […] The stock solutions were prepared in dimethyl sulfoxide (DMSO, Sigma-Aldrich, St. Louis, MO, cat. D2650) at 400-fold the tested concentration and stored at -70 degrees C. Prior to their use, the stock solutions were diluted in fresh medium and the final DMSO concentration in the assay was 0.25% (v/v). All drugs and investigational agents were tested over a range starting from a high concentration at or near the clinical Cmax and decreasing in half-log increments. If the clinical Cmax for an agent had not been determined, the highest concentration tested was 10 microM.
Cell Lines. The patient-derived cancer cell (PDC) lines: 156681-154-R-J1-PDC, 283228-195-R-J1-PDC, 287954-098-R-J1-PDC, 292921-168-R-J2-PDC, 349418-098-R-PDC, 425362-245-T-J1-PDC, 556581-035-R-J1-PDC, and BL0293-F563-PDC were received from the NCI Patient-Derived Models Repository (PDMR, https://pdmr.cancer.gov). The established cell lines HS-SY-2 (RRID:CVCL_8719), MPNST, and SYO-1 (RRID:CVCL_7146) were obtained from the Sloan Kettering Institute. The alveolar soft parts sarcoma cell line ASPS-1 (RRID:CVCL_S738) was established at the NCI and grown from internal seed stocks. The following established cell lines were purchased from the American Type Culture Collection (ATCC, Manassas, VA): G-401 (ATCC, cat. CRL-1441, RRID:CVCL_0270), SW982 (ATCC, cat. HTB-93, RRID:CVCL_1734), VA-ES-BJ (ATCC, cat. CRL-2138, RRID:CVCL_1785), NCI-H719 (ATCC, cat. CRL-5837, RRID:CVCL_1582), NCI-H196 (ATCC, cat. CRL-5823, RRID:CVCL_1509), NCI-H841 (ATCC, cat. CRL-5845, RRID:CVCL_1595), NCI-H1618 (ATCC, cat. CRL-5879, RRID:CVCL_1480), NCI-H1876 (ATCC, cat. CRL-5902, RRID:CVCL_1503), DMS 114 (ATCC, cat. CRL-2066; RRID:CVCL_1174), NCI-H211 (ATCC, cat. CRL-5824; RRID:CVCL_1529), and SW 1271 (ATCC, cat. CRL-2177, RRID:CVCL_1716). The small cell lung cancer cell line COR-L88 was purchased from Sigma-Aldrich (cat. 92031917-1VL, RRID:CVCL_1141). The non-small cell lung cancer cell lines NCI-H226 (RRID:CVCL_1544) and NCI-H322M (RRID:CVCL_1557) were established at the NCI and grown from internal seed stocks. Pooled donor human umbilical vein endothelial cells (HUVEC, Lonza, cat. CC-2519) and human mesenchymal stem cells (hMSC, Lonza, cat. PT-2501) were purchased from Lonza (Walkersville, MD).
Cell Culture. All cells were maintained in an incubator at 37 degrees C and 5% CO2 with 95% humidity. […]

[1] = second compound 0.003 µM, first compound 0.0316 µM
[2] = second compound 0.003 µM, first compound 0.1 µM
[3] = second compound 0.003 µM, first compound 0.316 µM
[4] = second compound 0.003 µM, first compound 1 µM
[5] = second compound 0.003 µM, first compound 3.16 µM
[6] = second compound 0.003 µM, first compound 10 µM
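Note: spheroids exposed to compounds for 7 days.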

## CC1COCCN1c1cc(-c2ccnn2C)c2ccnc(-c3ccn[nH]3)c2n1 (stereo not given) + CC[C@@]1(O)C(=O)OCc2c1cc1n(c2=O)Cc2cc3c(CN(C)C)c(O)ccc3nc2-1
Second compound 0.003 µM
  IC50: < 0.0316 µM
Second compound 0.00949 µM
  IC50: < 0.0316 µM
Second compound 0.03 µM
  IC50: < 0.0316 µM
Second compound 0.0949 µM
  IC50: < 0.0316 µM
Second compound 0.3 µM
  IC50: < 0.0316 µM
[1]
  viability, T/C: 22.8%
[2]
  viability, T/C: 13.6%
[3]
  viability, T/C: 10%
[4]
  viability, T/C: 12.2%
[5]
  viability, T/C: 14.4%
[6]
  viability, T/C: 15.4%
Second compound 0.00949 µM, first compound 0.0316 µM
  viability, T/C: 11.6%
Second compound 0.00949 µM, first compound 0.1 µM
  viability, T/C: 9.97%
Second compound 0.00949 µM, first compound 0.316 µM
  viability, T/C: 10%
Second compound 0.00949 µM, first compound 1 µM
  viability, T/C: 11.8%
Second compound 0.00949 µM, first compound 3.16 µM
  viability, T/C: 13.8%
Second compound 0.00949 µM, first compound 10 µM
  viability, T/C: 15%
Second compound 0.03 µM, first compound 0.0316 µM
  viability, T/C: 8.44%
Second compound 0.03 µM, first compound 0.1 µM
  viability, T/C: 7.98%
Second compound 0.03 µM, first compound 0.316 µM
  viability, T/C: 9.15%
Second compound 0.03 µM, first compound 1 µM
  viability, T/C: 10.8%
Second compound 0.03 µM, first compound 3.16 µM
  viability, T/C: 12.5%
Second compound 0.03 µM, first compound 10 µM
  viability, T/C: 14.3%
Second compound 0.0949 µM, first compound 0.0316 µM
  viability, T/C: 4.99%
Second compound 0.0949 µM, first compound 0.1 µM
  viability, T/C: 4.72%
Second compound 0.0949 µM, first compound 0.316 µM
  viability, T/C: 5.08%
Second compound 0.0949 µM, first compound 1 µM
  viability, T/C: 8.1%
Second compound 0.0949 µM, first compound 3.16 µM
  viability, T/C: 10.9%
Second compound 0.0949 µM, first compound 10 µM
  viability, T/C: 12.6%
Second compound 0.3 µM, first compound 0.0316 µM
  viability, T/C: 2.78%
Second compound 0.3 µM, first compound 0.1 µM
  viability, T/C: 2.83%
Second compound 0.3 µM, first compound 0.316 µM
  viability, T/C: 3.27%
Second compound 0.3 µM, first compound 1 µM
  viability, T/C: 4.98%
Second compound 0.3 µM, first compound 3.16 µM
  viability, T/C: 6.98%
Second compound 0.3 µM, first compound 10 µM
  viability, T/C: 9.23%

## COc1cc(C)[nH]c(=O)c1CN1CCc2c(Cl)cc(C(OC)C3COC3)c(Cl)c2C1=O (stereo not given) + COc1cc2c(cc1O)CCNC21CSC2c3c(OC(C)=O)c(C)c4c(c3C(COC1=O)N1C(O)C3Cc5cc(C)c(OC)c(O)c5C(C21)N3C)OCO4
Second compound 30 pM
  IC50: > 10 µM
Second compound 94.9 pM
  IC50: > 10 µM
Second compound 0.0003 µM
  IC50: 3.68 µM
Second compound 0.000949 µM
  IC50: < 0.0316 µM
Second compound 0.003 µM
  IC50: < 0.0316 µM
Second compound 30 pM, first compound 0.0316 µM
  viability, T/C: 117%
Second compound 30 pM, first compound 0.1 µM
  viability, T/C: 116%
Second compound 30 pM, first compound 0.316 µM
  viability, T/C: 110%
Second compound 30 pM, first compound 1 µM
  viability, T/C: 114%
Second compound 30 pM, first compound 3.16 µM
  viability, T/C: 110%
Second compound 30 pM, first compound 10 µM
  viability, T/C: 92.4%
Second compound 94.9 pM, first compound 0.0316 µM
  viability, T/C: 117%
Second compound 94.9 pM, first compound 0.1 µM
  viability, T/C: 101%
Second compound 94.9 pM, first compound 0.316 µM
  viability, T/C: 117%
Second compound 94.9 pM, first compound 1 µM
  viability, T/C: 112%
Second compound 94.9 pM, first compound 3.16 µM
  viability, T/C: 94.8%
Second compound 94.9 pM, first compound 10 µM
  viability, T/C: 97.3%
Second compound 0.0003 µM, first compound 0.0316 µM
  viability, T/C: 49.4%
Second compound 0.0003 µM, first compound 0.1 µM
  viability, T/C: 53.3%
Second compound 0.0003 µM, first compound 0.316 µM
  viability, T/C: 54.1%
Second compound 0.0003 µM, first compound 1 µM
  viability, T/C: 58.3%
Second compound 0.0003 µM, first compound 3.16 µM
  viability, T/C: 51.2%
Second compound 0.0003 µM, first compound 10 µM
  viability, T/C: 36.5%
Second compound 0.000949 µM, first compound 0.0316 µM
  viability, T/C: 6.67%
Second compound 0.000949 µM, first compound 0.1 µM
  viability, T/C: 3.7%
Second compound 0.000949 µM, first compound 0.316 µM
  viability, T/C: 4.01%
Second compound 0.000949 µM, first compound 1 µM
  viability, T/C: 3.27%
Second compound 0.000949 µM, first compound 3.16 µM
  viability, T/C: 2.1%
Second compound 0.000949 µM, first compound 10 µM
  viability, T/C: 1.64%
[1]
  viability, T/C: 0.15%
[2]
  viability, T/C: 0.14%
[3]
  viability, T/C: 0.13%
[4]
  viability, T/C: 0.14%
[5]
  viability, T/C: 0.2%
[6]
  viability, T/C: 0.26%
